Reference: patent US11407979B2, “Intermittent starvation techniques to prolong functional lifetime of liver cells in culture” (Colorado State University Research Foundation, priority 2017, dated 2022)

How the values were obtained:
3T3-J2 fibroblasts = test: Fibroblast density in MPCCs, live cell imaging of nuclei (Hoechst 33342); assay type: cell-based, murine; details: metformin treated MPCCs, 4 weeks of culture
[1] = tested on: primary human hepatocytes in micropatterned co-cultures (MPCCs); test: Hepatocyte island area (phase contrast) and polarization (CDCFDA bile canaliculi staining) in MPCCs; assay type: cell-based; details: metformin treated versus non-starved control MPCCs
[2] = tested on: primary human hepatocytes in micropatterned co-cultures (MPCCs)

Structure (SMILES)	identified as toxic (albumin or urea below 50% of DMSO control) [2]	TC50 values for albumin production, non-starved cells compared with starved cells [2]	TC50 values for urea production, non-starved cells compared with starved cells [2]	further results
CN(C)C(=N)N=C(N)N [metformin]	–	–	–	fibroblast numbers (3T3-J2 fibroblasts): did not change; hepatocyte island area [1]: not significantly higher; hepatocyte polarization [1]: not significantly higher
C[C@]12C=CC(=O)C=C1CC[C@@H]1[C@@H]2C(=O)C[C@@]2(C)[C@H]1CC[C@]2(O)C(=O)CO [prednisone]	toxic	–	–	–
CN1C(C(=O)Nc2ccccn2)=C(O)c2ccccc2S1(=O)=O [piroxicam]	–	similar	similar	–
Clc1ccc(COC(Cn2ccnc2)c2ccc(Cl)cc2Cl)c(Cl)c1 (stereo not drawn) [miconazole]	toxic	–	–	–
Cc1c(C)c2c(c(C)c1O)CCC(C)(COc1ccc(CC3SC(=O)NC3=O)cc1)O2 (stereo not drawn) [troglitazone]	–	similar	similar	–
